Data published in PubChem BioAssay (NCI).
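All cell lines were grown in 96-well plates and treated with compound for 48 hours. GI50 marks 50% less growth. Definition used: TGI = concentration required for complete inhibition of growth.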

Columns and labels:
Experiment in all cases: DTP human tumour cell line panel, 48 h
EKVX NSCLC = tested on: EKVX NSCLC
HL-60(TB) leukemia = tested on: HL-60(TB) leukemia
K-562 leukemia = tested on: K-562 leukemia
M14 melanoma = tested on: M14 melanoma
OVCAR-4 ovarian = tested on: OVCAR-4 ovarian
NCI-H226 lung = tested on: NCI-H226 lung

SMILES	TGI (EKVX NSCLC) [µM]	TGI (HL-60(TB) leukemia) [µM]	TGI (K-562 leukemia) [µM]	TGI (M14 melanoma) [µM]	TGI (OVCAR-4 ovarian) [µM]	TGI (NCI-H226 lung) [µM]	GI50 (EKVX NSCLC) [µM]	GI50 (K-562 leukemia) [µM]	GI50 (NCI-H226 lung) [µM]
C=CC(C)CCC(C/C=C(\C)CCC=C(C)C)C(=C)CCCC(C)C (stereo unspecified)	> 100	> 100	> 100	> 100	> 100	–	–	–	–
C=CCNC1=C2C[C@@H](C)C[C@@H](OC)[C@H](OC(=O)CN)[C@H](C)/C=C(\C)[C@@H](OC(N)=O)[C@H](OC)/C=C\C=C(/C)C(=O)NC(=CC1=O)C2=O	21.7	8.53	> 47.4	22.3	29.2	–	–	–	–
CCOC(=O)/C=C(/C(=O)OCC)n1ccc(=O)n(/C(=C/C(=O)OCC)C(=O)OCC)c1=O	36	2.91	10.3	10.6	30.6	18.9	–	–	–
COC(=O)[C@@H]1C[C@H]([Se]c2ccccc2)CN1C(=O)OCc1ccccc1	> 100	66	> 100	> 100	> 100	> 100	–	–	–
CC1OC(OC2C(O)COC(OC3C(C)OC(OC4C(OC(=O)[C@]56CCC(C)(C)C[C@@H]5C5=CCC7[C@@]8(C)C[C@H](O)[C@H](OC9OC(CO)C(O)C(OC%10OC(CO)C(O)C(O)C%10O)C9O)[C@@](C)(CO)[C@@H]8CC[C@@]7(C)[C@]5(C)CC6)OCC(O)C4O)C(O)C3O)C2O)C(O)C(O)C1O (stereo partly specified)	26.1	–	> 100	26.3	34.4	42.9	–	–	–
COc1cc2c(cc1O)[C@@H]1Cc3c(cc(OC)c(OC)c3Oc3cc4c(cc3OC)CCN(C)[C@@H]4Cc3ccc(O)cc3)[C@H](C2)N1C	> 100	36.6	45.8	33.9	> 100	> 100	–	–	–
Cc1c2c(n(CCN(C)C)c1C)NN=C(C#N)S2(=O)=O	> 100	–	> 100	> 100	> 100	> 100	–	–	–
CCOC(=O)c1cnc(-n2[nH]c3c(c2=O)CCCC3)[nH]c1=O	> 100	> 100	> 100	> 100	> 100	> 100	–	–	–
C[C@]12[C@@H]3CC[C@H]1[C@@H](OC(=O)Nc1cc([N+](=O)[O-])cc([N+](=O)[O-])c1)C(=O)N2CC3	> 100	> 100	> 100	> 100	> 100	> 100	–	–	–
O=C=NCCCCCCN1C(=O)N2C(c3ccccc3)N(CCCCCCN=C=O)C(=O)N2C1c1ccccc1 (stereo unspecified)	> 100	> 100	> 100	> 100	> 100	> 100	–	–	–
COc1ccc(C2SC(C)C(=O)N2c2nc(-c3nc(-c4ccc(Cl)cc4)cs3)cs2)cc1 (stereo unspecified)	> 100	> 100	> 100	> 100	> 100	> 100	–	–	–
CCS(=O)(=O)CCn1cnc2c1c(=O)n(C)c(=O)n2C	> 100	> 100	> 100	> 100	> 100	> 100	–	–	–
COc1c(O)c2c(=O)cc(OC)c3c4c(OC)cc(=O)c5c(O)c(OC)c6c(c(c1C(C(C)=O)C6C(C)O)c23)c54 (stereo unspecified)	4.55	0.415	–	–	–	3.65	–	–	–
OC1CN2Cc3cc4c(cc3[C@]13C=C[C@@H](O)CC23)OCO4 (stereo partly specified)	94.5	75.3	> 100	> 100	> 100	> 100	–	–	–
Cc1ccc(S(=O)(=O)NC(=O)Nc2ccc(S(N)(=O)=O)cc2S(N)(=O)=O)cc1	> 100	> 100	> 100	> 100	> 100	> 100	–	–	–
S=c1sc2nc(Cl)nc(Cl)c2s1	31.8	8.78	28.1	16.9	30.6	32.7	–	–	–
COc1cc2cc(C(=O)N3CC(CCl)c4ccccc43)[nH]c2c(OC)c1OC (stereo unspecified)	> 100	> 100	> 41.3	> 100	> 100	> 100	–	–	–
O=[N+]([O-])/C(C(Cl)=C(Cl)Cl)=C(/Sc1ccccc1)N1CCCCC1	> 100	> 26.8	> 100	> 100	> 100	> 100	–	–	–
Cc1cn(C2CC(N)C(C(=O)O)O2)c(=O)[nH]c1=O (stereo unspecified)	> 100	> 100	> 100	> 100	> 100	> 100	–	–	–
Cc1c(C)c(S(=O)(=O)N(CCCN)OCCCN)c(C)c2c1OC(C)(C)C2	31.3	–	> 100	34.1	> 100	> 100	–	–	–

SMILES	TGI (EKVX NSCLC) [µM]	TGI (HL-60(TB) leukemia) [µM]	TGI (K-562 leukemia) [µM]	TGI (M14 melanoma) [µM]	TGI (OVCAR-4 ovarian) [µM]	TGI (NCI-H226 lung) [µM]	GI50 (EKVX NSCLC) [µM]	GI50 (K-562 leukemia) [µM]	GI50 (NCI-H226 lung) [µM]
COC(=O)c1ccccc1/C=C1\Cc2cc(C)c(C)cc2C1=O	> 100	> 100	> 100	> 100	> 100	> 100	–	–	–
NCCN1CC2CCC(CC2)C1	> 10	> 10	> 10	> 10	> 10	> 10	–	–	–
Cc1cc(NS(=O)(=O)c2ccc(Nc3c4ccccc4nc4ccc(C(=O)Nc5ccc(S(N)(=O)=O)cc5)cc34)cc2)no1	> 100	> 100	> 100	> 100	> 100	> 100	–	–	–
CCc1c(Cc2cc(C)cc(C)c2)n2c(nc1=O)SCC2CBr (stereo unspecified)	> 50	> 50	> 50	> 50	> 50	> 50	–	–	–
O=C(/C=C/c1ccc(O)c(O)c1O)OCCc1ccccc1	> 100	48.8	37.3	37.9	29.5	97.9	–	–	–
COc1cc(N(CCC#N)CCC#N)ccc1/C(N=Nc1ccccc1)=N/NC(=O)c1cc(Br)ccc1O	69.2	36.6	42.7	> 100	64.4	> 100	–	–	–
CCOC(=O)/C=C1\c2ccccc2C(=O)N1CC(=O)OCC	> 100	–	> 100	> 100	> 100	> 100	–	–	–
C=C1C(=O)O[C@H]2[C@H]1CC(=O)/C(C)=C/CC[C@@]1(C)O[C@@H]21	24.8	–	1.68	1.57	12.9	19.8	6.06	0.368	–
CC(C)NCCC(O)c1cc2ccccc2o1 (stereo unspecified)	> 100	–	> 100	> 100	> 100	> 100	–	–	–
O=C(c1ccccc1)c1sc2c(=O)c(C(=O)c3ccccc3)c(C(=O)c3ccccc3)sc2c(=O)c1C(=O)c1ccccc1	> 100	48.4	> 100	> 100	> 100	> 100	–	–	–
COc1ccc(/C=C2\N=C(NN)N=C2Cl)cc1	> 100	> 100	> 100	> 100	> 100	> 100	–	–	–
O=C(c1ccc(Br)cc1)n1c2ccc(Br)cc2c2nc3ccccc3nc21	> 100	> 100	> 100	> 100	> 100	> 100	–	–	–
CN(C)C(=O)Oc1ccc(-c2cn3cc(NC(=O)c4ccccc4)ccc3n2)cc1	> 100	–	> 100	> 100	> 100	> 100	–	–	–
CC(=O)OC1CC[C@]2(C)C3CC[C@@]4(C)C(CCC4[C@H](C)CCCC(C)C)[C@@H]3CCC2(Br)C1 (stereo partly specified)	> 50	28.3	35.2	> 50	24	> 50	–	–	–
C=C(Cl)C(=C)CCC(Cl)C(C)C (stereo unspecified)	> 100	> 100	> 100	> 100	> 100	> 100	–	–	–
O=C(O)CCCOc1cc(-c2ccccc2F)nc2cc3c(cc12)OCO3	> 100	–	–	> 100	> 100	> 100	–	–	8.51
CN1CCC23c4c5ccc(O)c4OC2c2[nH]c4ccccc4c2CC3(O)C1C5 (stereo unspecified)	> 100	–	44.4	34.8	> 100	–	–	–	–
CC#CCCN(CC#N)Cc1ccccc1	> 100	> 100	> 100	> 100	> 100	> 100	–	–	–
C=CC[C@@]1(C)CCCCCCCCC[C@@](C)(CC=C)C1=O	> 100	46.1	74.5	> 100	> 100	48.4	–	–	–
NNc1[nH]c(=S)[nH]c1C(N)=O	> 100	> 100	–	> 100	> 100	> 100	–	–	–

SMILES	TGI (EKVX NSCLC) [µM]	TGI (HL-60(TB) leukemia) [µM]	TGI (K-562 leukemia) [µM]	TGI (M14 melanoma) [µM]	TGI (OVCAR-4 ovarian) [µM]	TGI (NCI-H226 lung) [µM]	GI50 (EKVX NSCLC) [µM]	GI50 (K-562 leukemia) [µM]	GI50 (NCI-H226 lung) [µM]
C/C=C/C(=O)N1C(=O)OC[C@@H]1c1ccccc1	35	43	56	36.6	45.3	39.6	–	–	–
NC(N)=NCCCC(NC(=O)OCCCCCCn1ccc(N)nc1=O)C(=O)O (stereo unspecified)	> 100	> 100	> 100	> 100	> 100	33.6	–	–	–
Cc1ccc(/C=C/C(=O)c2cc(CN(C)C)c(O)c(CN(C)C)c2)cc1	> 100	38.5	43.9	39.1	–	59.5	–	–	–
O=C(CCN1CCOCC1)Nc1ccc2sc3ccccc3c(=O)c2n1	> 100	> 100	> 100	> 100	> 100	–	–	–	–
COc1cc2c(cc1OC)C(N)CC2=O (stereo unspecified)	> 100	–	> 100	> 100	> 100	> 100	–	–	–
COc1cc(/C=C/c2cc(/C=C/c3ccc(O)c(OC)c3)oc(=O)c2)ccc1O	> 36.2	–	> 28	> 100	13.6	61.1	–	–	–
NC(=Nc1ccc(O)cc1)S(=O)O	> 100	> 100	> 100	> 100	> 100	> 100	–	–	–
C=C1CN(Cc2ccccc2)[C@@H]2CCCCC[C@H](C#N)[C@H]12	> 100	–	> 100	> 100	> 100	> 100	–	–	–
Nc1nc(Cl)c2nnn(CC3CCC(CO)C3)c2n1 (stereo unspecified)	> 100	–	> 100	> 100	> 100	> 100	–	–	–
CC1(C)CC(=O)c2c(nc(SSc3nc4c(c(-c5ccccc5)c3C#N)C(=O)CC(C)(C)C4)c(C#N)c2-c2ccccc2)C1	> 10	> 10	> 10	> 10	> 10	> 10	–	–	–
COc1ccc(Cc2nccc3cc(OC)c(OC)cc23)cc1OC	> 100	> 100	> 100	> 100	> 100	> 100	–	–	–
O=C(NC(Nc1ccc(F)c(Cl)c1)(C(F)(F)F)C(F)(F)F)OCc1ccccc1	83.6	40.3	> 100	> 100	–	> 100	–	–	–
Cc1ccc(S(=O)(=O)N2CCCC2C(=O)O[C@H]2CC[C@H]3CC=C[C@H]32)cc1 (stereo partly specified)	> 100	–	78.9	> 100	> 100	> 100	–	–	–
COc1cc2c(cc1OCc1ccccc1)NC(=S)[C@@H]1CCCN1C2=S	> 100	–	> 100	> 100	> 100	> 100	–	–	–
NC(Cc1ccccc1)(C(=O)O)C(=O)O	> 100	–	> 100	> 100	> 100	> 100	–	–	–
COC(=O)[C@@H]1C[C@@H]2c3ccccc3N(S(=O)(=O)c3ccccc3)[C@@H]2N1C(=O)OC	> 100	> 100	> 100	–	> 100	> 100	–	–	–
COc1cccc(C2C3=C(COC3=O)Oc3cc4c(cc32)OCO4)c1 (stereo unspecified)	> 58	0.0524	6.11	> 100	> 100	–	–	–	–
O=C(c1cccc(C(=O)c2ccc3c4c(cccc24)C(=O)N(c2ccccc2)C3=O)c1)c1ccc2c3c(cccc13)C(=O)N(c1ccccc1)C2=O	> 100	–	> 100	> 100	> 100	> 100	–	–	–
O=C1/C(=C/c2ccco2)N=C(c2ccccc2)N1c1cc2cc(Sc3ccccc3)ccc2[nH]1	> 25	5.96	> 25	> 25	> 25	–	–	–	–
Cc1cc(OCC(=O)N/N=C/C(Br)=C/c2ccccc2)nc(SCC(=O)N/N=C/C(Br)=C/c2ccccc2)n1	> 100	> 100	> 100	> 100	> 100	–	–	–	–
